Experimental data: US7759345B2, “Antitumoral derivatives of ET-743” (priority 2001, dated 2010)

Assays:
[1] = tested on: Kidney
Description: (§9) Toxicity was asssessed by the methods reported in Toxicology in Vitro, 15 (2001) 571-577, J. Luber Narod et al.: “Evaluation of the use of in vitro methodolodies as tools for screening new compounds for potential in vivo toxicity”.

[2] = tested on: HT-29; assay: Inhibition of cells growth by colorimetric assay (SRB), HT-29; type: cell-based; conditions: for GI50 / LC50 (concentration for 50% cell killing): Homo sapiens, HT-29, 48 h; for GI50 / HT-29 TGI: SRB assay, 48 hours exposure; for GI50: read-out: HT-29 GI50; for LC50 (concentration for 50% cell killing): read-out: HT-29 LC50, SRB assay, 48 hours exposure
Procedure, shortened: (§1)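 Human cancer and endothelial lines are seeded at 5×10^3 cells per well and, after 18 h, treated for 48 h with compound dissolved in DMSO/EtOH/PBS (0.5:0.5:99) at 10 to 10^−8 μg/ml. Cell mass is quantified by SRB staining (OD 490 nm), and growth inhibition, total growth inhibition and cell kill are calculated from triplicate wells.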

[3] = tested on: Skeletal
Description: as §9

[4] = tested on: Liver
Description: as §9

[5] = tested on: SK-MEL-28; assay: Inhibition of cells growth by colorimetric assay (SRB), SK-MEL-28; type: cell-based; conditions: for GI50: read-out: MEL-28 GI50
Procedure, shortened: as §1

[6] = tested on: A-549; assay: Inhibition of cells growth by colorimetric assay (SRB), A-549; type: cell-based; conditions: for GI50 / LC50 (concentration for 50% cell killing): Homo sapiens, A549, 48 h; for GI50 / A-549 TGI: SRB assay, 48 hours exposure; for GI50: read-out: A-549 GI50; for LC50 (concentration for 50% cell killing): read-out: A-549 LC50, SRB assay, 48 hours exposure
Procedure, shortened: as §1

[7] = tested on: SK-BR-3; assay: Inhibition of cells growth by colorimetric assay (SRB), SK-BR-3; type: cell-based
Description: (§2) 2°.—Inhibition of Cells Growth by Colorimetric Assay.
(§3) A colorimetric type of assay, using sulforhodamine B (SRB) reaction has been adapted for a quantitative measurement of cell growth and viability [following the technique described by Philip Skehan, et al. (1990), New colorimetric cytotoxicity assay for anticancer drug screening, J. Natl. Cancer Inst., 82:1107-1112]
(§4) This form of the assay employs 96 well cell culture microplates of 9 mm diameter (Faircloth, 1988; Mosmann, 1983). Most of the cell lines are obtained from American Type Culture Collection (ATCC) derived from different human cancer types.
(§5) Cells are maintained in RPMI 1640 10% FBS, supplemented with 0.1 g/l penicillin and 0.1 g/l streptomycin sulfate and then incubated at 37° C., 5% CO2 and 98% humidity. For the experiments, cells were harvested from subconfluent cultures using trypsin and resuspended in fresh medium before plating.
(§6) Cells are seeded in 96 well microtiter plates, at 5×10^3 cells per well in aliquots of 195 μl medium, and they are allowed to attach to the plate surface by growing in drug free medium for 18 hours. Afterward, samples are added in aliquots of 5 μl in a ranging from 10 to 10^−8 μg/ml, dissolved in DMSO/EtOH/PBS (0.5:0.5:99). After 48 hours exposure, the antitumor effect are measured by the SRB methodology: cells are fixed by adding 50 μl of cold 50% (wt/vol) trichloroacetic acid (TCA) and incubating for 60 minutes at 4° C. Plates are washed with deionized water and dried. One hundred μl of SRB solution (0.4% wt/vol in 1% acetic acid) is added to each microtiter well and incubated for 10 minutes at room temperature. Unbound SRB is removed by washing with 1% acetic acid. Plates are air dried and bound stain is solubilized with Tris buffer. Optical densities are read on a automated spectrophotometric plate reader at a single wavelength of 490 nm.
(§7) The values for mean+/−SD of data from triplicate wells are calculated. Some parameters for cellular responses can be calculated: GI=growth inhibition, TGI=total growth inhibition (cytostatic effect) and LC=cell killing (cytotoxic effect).
(§8) Obtained results may predict the usefulness of a certain drug as a potential cancer treatment. For this technique, compounds which show GI50 values smaller than 10 μg/ml are selected to continue with further studies. GI50's data allow to predict that not only could a drug be cystostatic, but also it could have a potential in terms of tumor reduction.

[8] = tested on: LoVo-Dox; assay: Inhibition of cells growth by colorimetric assay (SRB), LoVo-Dox; type: cell-based
Procedure, shortened: as §1

[9] = tested on: DU-145; assay: Inhibition of cells growth by colorimetric assay (SRB), DU-145; type: cell-based
Procedure, shortened: as §1

[10] = tested on: PANC-1; assay: Inhibition of cells growth by colorimetric assay (SRB), PANC-1; type: cell-based
Procedure, shortened: as §1

[11] = tested on: LoVo; assay: Inhibition of cells growth by colorimetric assay (SRB), LoVo; type: cell-based
Procedure, shortened: as §1

[12] = tested on: HMEC1; assay: Inhibition of cells growth by colorimetric assay (SRB), HMEC1; type: cell-based
Description: as §2, §3, §4, §5, §6, §7, §8

[13] = tested on: IGROV-1; assay: Inhibition of cells growth by colorimetric assay (SRB), IGROV-1; type: cell-based
Procedure, shortened: as §1

[14] = tested on: K-562; assay: Inhibition of cells growth by colorimetric assay (SRB), K-562; type: cell-based
Procedure, shortened: as §1

[15] = tested on: IGROV-ET; assay: Inhibition of cells growth by colorimetric assay (SRB), IGROV-ET; type: cell-based
Procedure, shortened: as §1

[16] = tested on: LNCaP; assay: Inhibition of cells growth by colorimetric assay (SRB), LNCaP; type: cell-based
Description: as §2, §3, §4, §5, §6, §7, §8

[17] = tested on: SK-OV-3; assay: Inhibition of cells growth by colorimetric assay (SRB), SK-OV-3; type: cell-based
Procedure, shortened: as §1

[18] = Homo sapiens, SK-MEL-28, 48 h, SRB assay, 48 hours exposure

`COc1cc2c(cc1O)CCN(C)[C@]21CS[C@@H]2c3c(OC(C)=O)c(C)c4c(c3[C@H](COC1=O)N1C2[C@@H]2N[C@@H](Cc3cc(C)c(OC)c(O)c32)[C@@H]1O)OCO4` (stereo partly shown) [Compound 217] was tested, and the “Toxicity Data Kidney” value [1] was 2.66E-13, the GI50 [2] was 13.1 nM and the LC50 (concentration for 50% cell killing) [2] was 13100 nM. For the same compound, the “HT-29 TGI” value [2] was 1.31E-05, the “Toxicity Data Skeletal” value [3] was 3.37E-12 and the “Toxicity Data Liver” value [4] was 1.07E-09. It also gave a GI50 [5, 18] of 0.537 nM, a GI50 [6] of 2.1 nM and an LC50 (concentration for 50% cell killing) [6] of 45.7 nM. For the same compound, the “A-549 TGI” value [6] was 6.16E-09.
For `COc1cc2c(cc1O)CCN[C@]21CS[C@@H]2c3c(O)c(C)c4c(c3[C@H](COC1=O)N1C2[C@H]2c3c(cc(C)c(OC)c3O)C[C@@H]([C@@H]1O)N2C)OCO4` (stereo partly shown) [Et-701], the GI50 ([7]; Homo sapiens, SK-BR-3, 48 h, SRB assay, 48 hours exposure, read-out: SK-BR3 GI50) was 2.21 nM, the CC50 ([7]; Homo sapiens, SK-BR-3, 48 h, read-out: SK-BR3 LC50, SRB assay, 48 hours exposure) was 27.5 nM and the “SK-BR3 TGI” value ([7]; SRB assay, 48 hours exposure) was 6.25E-09. The GI50 [2] was 4.24 nM, the LC50 (concentration for 50% cell killing) [2] was 9560 nM and the “HT-29 TGI” value [2] was 3.72E-08. The GI50 ([8]; Homo sapiens, 48 h, SRB assay, 48 hours exposure, read-out: LOVO-DOX GI50) was 50.6 nM, the CC50 ([8]; Homo sapiens, 48 h, read-out: LOVO-DOX LC50, SRB assay, 48 hours exposure) was 13900 nM and the “LOVO-DOX TGI” value ([8]; SRB assay, 48 hours exposure) was 5.46E-07. For the same compound, the GI50 [5, 18] was 9.74 nM, the CC50 ([5]; Homo sapiens, SK-MEL-28, 48 h, read-out: MEL-28 LC50, SRB assay, 48 hours exposure) was 122 nM and the “MEL-28 TGI” value ([5]; SRB assay, 48 hours exposure) was 3.50E-08. For the same compound, the GI50 ([9]; Homo sapiens, DU-145, 48 h, SRB assay, 48 hours exposure, read-out: DU-145 GI50) was 4.04 nM, the CC50 ([9]; Homo sapiens, DU-145, 48 h, read-out: DU-145 LC50, SRB assay, 48 hours exposure) was 2970 nM and the “DU-145 TGI” value ([9]; SRB assay, 48 hours exposure) was 9.70E-09. For the same compound, the GI50 ([10]; Homo sapiens, PANC-1, 48 h, SRB assay, 48 hours exposure, read-out: PANC-1 GI50) was 4.61 nM, the LC50 (concentration for 50% net cell kill) ([10]; Homo sapiens, PANC-1, 48 h, read-out: PANC-1 LC50, SRB assay, 48 hours exposure) was 206 nM and the “PANC-1 TGI” value ([10]; SRB assay, 48 hours exposure) was 1.19E-08. For the same compound, the GI50 ([11]; Homo sapiens, LoVo, 48 h, SRB assay, 48 hours exposure, read-out: LOVO GI50) was 4.56 nM, the LC50 (concentration for 50% cell killing) ([11]; Homo sapiens, LoVo, 48 h, read-out: LOVO LC50, SRB assay, 48 hours exposure) was 3750 nM and the “LOVO TGI” value ([11]; SRB assay, 48 hours exposure) was 1.18E-08. For the same compound, the GI50 ([12]; Homo sapiens, HMEC-1, 48 h, SRB assay, 48 hours exposure, read-out: HMEC-1 GI50) was 3.99 nM, the LC50 ([12]; Homo sapiens, HMEC-1, 48 h, read-out: HMEC-1 LC50, SRB assay, 48 hours exposure) was 4570 nM and the “HMEC-1 TGI” value ([12]; SRB assay, 48 hours exposure) was 1.35E-08. The GI50 ([13]; Homo sapiens, IGROV-1, 48 h, SRB assay, 48 hours exposure, read-out: IGROV GI50) was 2.33 nM, the CC50 ([13]; Homo sapiens, IGROV-1, 48 h, read-out: IGROV LC50, SRB assay, 48 hours exposure) was 11.1 nM and the “IGROV TGI” value ([13]; SRB assay, 48 hours exposure) was 5.08E-09. The GI50 ([14]; Homo sapiens, K562, 48 h, SRB assay, 48 hours exposure, read-out: K-562 GI50) was 1.33 nM, the LC50 (50% cell killing) ([14]; Homo sapiens, K562, 48 h, read-out: K-562 LC50, SRB assay, 48 hours exposure) was 11.3 nM and the “K-562 TGI” value ([14]; SRB assay, 48 hours exposure) was 3.50E-09. The GI50 [6] was 2.99 nM, the LC50 (concentration for 50% cell killing) [6] was 13.9 nM and the “A-549 TGI” value [6] was 7.06E-09. The GI50 ([15]; Homo sapiens, 48 h, SRB assay, 48 hours exposure, read-out: IGROV-ET GI50) was 16.4 nM, the CC50 ([15]; Homo sapiens, 48 h, read-out: IGROV-ET LC50, SRB assay, 48 hours exposure) was 3750 nM and the “IGROV-ET TGI” value ([15]; SRB assay, 48 hours exposure) was 7.78E-08. For the same compound, the GI50 ([16]; Homo sapiens, LNCaP, 48 h, read-out: LNCAP GI50, SRB assay, 48 hours exposure) was 0.324 nM, the CC50 ([16]; Homo sapiens, LNCaP, 48 h, read-out: LNCAP LC50, SRB assay, 48 hours exposure) was 5.28 nM and the “LNCAP TGI” value ([16]; SRB assay, 48 hours exposure) was 1.56E-09. The GI50 ([17]; Homo sapiens, SK-OV-3, 48 h, SRB assay, 48 hours exposure, read-out: SK-OV3 GI50) was 2.1 nM, the LC50 ([17]; Homo sapiens, SK-OV-3, 48 h, read-out: SK-OV3 LC50, SRB assay, 48 hours exposure) was 9850 nM and the “SK-OV3 TGI” value ([17]; SRB assay, 48 hours exposure) was 1.08E-08.
